Measurements reported in patent US20190375708A1 (VenatoRx Pharmaceuticals, Inc., priority 2018, published 2019).

Key:
[1] = In vitro cytotoxicity assay (MTT cell viability) in HepG2 cells; assay type: cell-based, human; details: human
Summary of the method: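 Parental HepG2 cells in EMEM + 10% FBS were exposed to compounds (8 half-log dilutions, 30 μM to 1.0 nM) for 7 days at 37 °C, 5% CO2. MTT was then added for 3-4 h, formazan dissolved in DMSO and absorbance read at 492 nm; CC50 came from 4-parameter fits against vehicle controls.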

[2] = tested on: HBV replication in HepAD38 cells; assay: Anti-HBV replication assay in HepAD38 cells (QPCR of extracellular HBV DNA); assay type: cell-based, HBV (genotype D, serotype ayw); details: Hepatitis B virus, 168 h, 7 days incubation, extracellular HBV DNA by QPCR, read-out: Anti-HBV EC50
Summary of the method: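 EC50 values reflect 50% reduction of extracellular HBV DNA, measured by QPCR after 7-day treatment of tetracycline-deprived HepAD38 cells with compound […].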

Structure (SMILES) | CC50 at 7 days [1] [µM] | EC50 [2] [µM]
Cc1nc2c(s1)C(NC(=O)C(=O)c1c(C)c(C(=O)Nc3ccc(F)c(C)c3)c(C)n1C)CCC2 (centres unmarked) [Example 355, N-(4-fluoro-3-methylphenyl)-1,2,4-trimethyl-5-(2-((2-methyl-4,5,6,7-tetrahydrobenzo[d]thiazol-7-yl)amino)-2-oxoacetyl)-1H-pyrrole-3-carboxamide] | > 30 | < 0.05
Cc1nnc(CCNC(=O)C(=O)c2c(C)c(C(=O)Nc3ccc(F)c(C)c3)c(C)n2C)s1 [Example 356] | > 30 | < 0.05
Cc1c(C(=O)Nc2ccc(F)c(Cl)c2)c(C)n(C)c1C(=O)C(=O)NC12CCC(O)(CC1)CC2 [Example 357, N-(3-chloro-4-fluorophenyl)-5-(2-((4-hydroxybicyclo[2.2.2]octan-1-yl)amino)-2-oxoacetyl)-1,2,4-trimethyl-1H-pyrrole-3-carboxamide] | > 30 | < 0.05
COCC1(CNC(=O)C(=O)c2c(C)c(C(=O)Nc3ccc(F)c(C)c3)c(C)n2C)CCCCC1 [Example 358, N-(4-fluoro-3-methylphenyl)-5-(2-(((1-(methoxymethyl)cyclohexyl)methyl)amino)-2-oxoacetyl)-1,2,4-trimethyl-1H-pyrrole-3-carboxamide] | > 30 | < 0.05
Cc1cc(NC(=O)c2c(C)c(C(=O)C(=O)NC3(CO)CCCC3)n(C)c2C)ccc1F [Example 359, N-(4-fluoro-3-methylphenyl)-5-(2-((1-(hydroxymethyl)cyclopentyl)amino)-2-oxoacetyl)-1,2,4-trimethyl-1H-pyrrole-3-carboxamide] | > 30 | < 0.05
Cc1cc(NC(=O)c2c(Cl)c(C(=O)C(=O)NC(C)(C)C)n(C)c2C)ccc1F [Example 363, 5-(2-(tert-butylamino)-2-oxoacetyl)-4-chloro-N-(4-fluoro-3-methylphenyl)-1,2-dimethyl-1H-pyrrole-3-carboxamide] | > 30 | < 0.05
Cc1cc(NC(=O)c2c(Cl)c(C(=O)C(=O)NCC(C)(C)O)n(C)c2C)ccc1F [Example 364, 4-chloro-N-(4-fluoro-3-methylphenyl)-5-(2-((2-hydroxy-2-methylpropyl)amino)-2-oxoacetyl)-1,2-dimethyl-1H-pyrrole-3-carboxamide] | 5 to 30 | < 0.05
Cc1cc(NC(=O)c2c(Cl)c(C(=O)C(=O)NC(C)(C)CO)n(C)c2C)ccc1F [Example 365, 4-chloro-N-(4-fluoro-3-methylphenyl)-5-(2-((1-hydroxy-2-methylpropan-2-yl)amino)-2-oxoacetyl)-1,2-dimethyl-1H-pyrrole-3-carboxamide] | > 30 | < 0.05
Cc1cc(NC(=O)c2c(Cl)c(C(=O)C(=O)NC3(CO)CC(F)(F)C3)n(C)c2C)ccc1F [Example 366, 4-chloro-5-(2-((3,3-difluoro-1-(hydroxymethyl)cyclobutyl)amino)-2-oxoacetyl)-N-(4-fluoro-3-methylphenyl)-1,2-dimethyl-1H-pyrrole-3-carboxamide] | > 30 | < 0.05
Cc1cc(NC(=O)c2c(Cl)c(C(=O)C(=O)N[C@@H]3CCC[C@@H]3O)n(C)c2C)ccc1F [Example 367, 4-chloro-N-(4-fluoro-3-methylphenyl)-5-(2-(((1R,2S)-2-hydroxycyclopentyl)aminO)-2-oxoacetyl)-1,2-dimethyl-1H-pyrrole-3-carboxamide] | 5 to 30 | < 0.05
Cc1c(C(=O)Nc2cc(F)c(F)c(F)c2)c(Cl)c(C(=O)C(=O)NC(C)(C)C)n1C [Example 369, 5-(2-(tert-butylamino)-2-oxoacetyl)-4-chloro-1,2-dimethyl-N-(3,4,5-trifluorophenyl)-1H-pyrrole-3-carboxamide] | > 30 | < 0.05
Cc1c(C(=O)Nc2ccc(F)c(Cl)c2)c(Cl)c(C(=O)C(=O)NC(C)(C)C)n1C [Example 370, 5-(2-(tert-butylamino)-2-oxoacetyl)-4-chloro-N-(3-chloro-4-fluorophenyl)-1,2-dimethyl-1H-pyrrole-3-carboxamide] | > 30 | < 0.05
Cc1cc(NC(=O)c2c(Cl)c(C(=O)C(=O)NC(C)(C)C)n(C)c2C)cnc1F [Example 371, 5-(2-(tert-butylamino)-2-oxoacetyl)-4-chloro-N-(6-fluoro-5-methylpyridin-3-yl)-1,2-dimethyl-1H-pyrrole-3-carboxamide] | > 30 | 0.05 to 0.499
Cc1c(C(=O)Nc2cc(F)c(F)c(F)c2)c(Cl)c(C(=O)C(=O)NCC(C)(C)O)n1C [Example 372, 4-chloro-5-(2-((2-hydroxy-2-methylpropyl)amino)-2-oxoacetyl)-1,2-dimethyl-N-(3,4,5-trifluorophenyl)-1H-pyrrole-3-carboxamide] | 0.5 to 4.99 | < 0.05
Cc1c(C(=O)Nc2cc(F)c(F)c(F)c2)c(Cl)c(C(=O)C(=O)NC(C)(C)CO)n1C [Example 373, 4-chloro-5-(2-((1-hydroxy-2-methylpropan-2-yl)amino)-2-oxoacetyl)-1,2-dimethyl-N-(3,4,5-trifluorophenyl)-1H-pyrrole-3-carboxamide] | 0.5 to 4.99 | < 0.05
Cc1c(C(=O)Nc2cc(F)c(F)c(F)c2)c(Cl)c(C(=O)C(=O)N[C@@H]2CCC[C@@H]2O)n1C [Example 374, 4-chloro-5-(2-(((1R,2S)-2-hydroxycyclopentyl)amino)-2-oxoacetyl)-1,2-dimethyl-N-(3,4,5-trifluorophenyl)-1H-pyrrole-3-carboxamide] | 0.5 to 4.99 | < 0.05
Cc1c(C(=O)Nc2ccc(F)c(F)c2)c(Cl)c(C(=O)C(=O)NC2(C)CC(F)(F)C2)n1C [Example 375, 4-chloro-5-(2-((3,3-difluoro-1-methylcyclobutyl)amino)-2-oxoacetyl)-N-(3,4-difluorophenyl)-1,2-dimethyl-1H-pyrrole-3-carboxamide] | > 30 | < 0.05
Cc1c(C(=O)Nc2ccc(F)c(F)c2)c(Cl)c(C(=O)C(=O)NC2(C(F)(F)F)CC2)n1C [Example 376, 4-chloro-N-(3,4-difluorophenyl)-1,2-dimethyl-5-(2-oxo-2-((1-(trifluoromethyl)cyclopropyl)amino)acetyl)-1H-pyrrole-3-carboxamide] | 5 to 30 | < 0.05
COc1c(C(=O)Nc2ccc(F)c(F)c2)c(C)n(C)c1C(=O)C(=O)NC1(C(F)(F)F)CC1 [Example 377, N-(3,4-difluorophenyl)-4-methoxy-1,2-dimethyl-5-(2-oxo-2-((1-(trifluoromethyl)cyclopropyl)amino)acetyl)-1H-pyrrole-3-carboxamide] | > 30 | < 0.05
COc1c(C(=O)Nc2ccc(F)c(F)c2)c(C)n(C)c1C(=O)C(=O)NC1(C(F)(F)F)CCC1 [Example 378, N-(3,4-difluorophenyl)-4-methoxy-1,2-dimethyl-5-(2-oxo-2-((1-(trifluoromethyl)cyclobutyl)amino)acetyl)-1H-pyrrole-3-carboxamide] | > 30 | < 0.05
COc1c(C(=O)Nc2ccc(F)c(F)c2)c(C)n(C)c1C(=O)C(=O)NC1(C)CC(F)(F)C1 [Example 379, 5-(2-((3,3-difluoro-1-methylcyclobutyl)amino)-2-oxoacetyl)-N-(3,4-difluorophenyl)-4-methoxy-1,2-dimethyl-1H-pyrrole-3-carboxamide] | > 30 | 0.05 to 0.499
COc1c(C(=O)Nc2ccc(F)c(F)c2)c(C)n(C)c1C(=O)C(=O)NC(C)(C)C [Example 380] | > 30 | < 0.05
COc1c(C(=O)Nc2ccc(F)c(F)c2)c(C)n(C)c1C(=O)C(=O)NC(C)(C)CO [Example 381, N-(3,4-difluorophenyl)-5-(2-((1-hydroxy-2-methylpropan-2-yl)amino)-2-oxoacetyl)-4-methoxy-1,2-dimethyl-1H-pyrrole-3-carboxamide] | > 30 | 0.05 to 0.499
COc1c(C(=O)Nc2ccc(F)c(F)c2)c(C)n(C)c1C(=O)C(=O)NCC(C)(C)O [Example 382, N-(3,4-difluorophenyl)-5-(2-((2-hydroxy-2-methylpropyl)amino)-2-oxoacetyl)-4-methoxy-1,2-dimethyl-1H-pyrrole-3-carboxamide] | > 30 | > 1
COc1c(C(=O)Nc2ccc(F)c(F)c2)c(C)n(C)c1C(=O)C(=O)N[C@H]1CC[C@@H](O)CC1 [Example 383, N-(3,4-difluorophenyl)-5-(2-(((1s,4s)-4-hydroxycyclohexyl)amino)-2-oxoacetyl)-4-methoxy-1,2-dimethyl-1H-pyrrole-3-carboxamide] | > 30 | 0.5 to 1
COc1c(C(=O)Nc2ccc(F)c(F)c2)c(C)n(C)c1C(=O)C(=O)N[C@@H]1CCC[C@@H]1O [Example 384] | > 30 | > 1
CC[C@@H](CO)NC(=O)C(=O)c1c(OC)c(C(=O)Nc2ccc(F)c(F)c2)c(C)n1C [Example 385, (S)-N-(3,4-difluorophenyl)-5-(2-((1-hydroxybutan-2-yl)amino)-2-oxoacetyl)-4-methoxy-1,2-dimethyl-1H-pyrrole-3-carboxamide] | > 30 | > 1
Cc1cc(NC(=O)c2c(C)c(C(=O)C(=O)NC(C)(C)C)n(C)c2Cl)ccc1F [Example 386, 5-(2-(tert-butylamino)-2-oxoacetyl)-2-chloro-N-(4-fluoro-3-methylphenyl)-1,4-dimethyl-1H-pyrrole-3-carboxamide] | 5 to 30 | > 1
